Data on 26 molecules can be found in patent US8357673B2, “4-arylazo-3,5-diamino-pyrazole compounds and use thereof” (Univerzita Palackeho V Olomouci, priority 2004, dated 2013).

Each structure is given as a SMILES string. Like-named read-outs stand apart in the source and are kept apart here.

For one series, the target named is T1, CDK1/cyclin B (Homo sapiens, UniProt P06493).
T1 construct: made in house; host or cells: Sf9 insect cells (baculovirus co-infection)
The series can be described thus: CDK1/cyclin B kinase inhibition assay (histone H1, [γ-33P]ATP). Format: biochemical. As to conditions: averaged from triplicates; 15 μM ATP. The protocol:
(§1) CDK1/cyclin B and CDK2/cyclin E kinases were produced in Sf9 insect cells coinfected with appropriate baculoviral constructs. The cells were harvested 70 h post infection, incubated in lysis buffer (50 mM Tris pH 7.4, 150 mM NaCl, 5 mM EDTA, 20 mM NaF, 1% Tween 20, 1 mM DTT, 0.1 mM PMSF, 0.5 μg/ml leupeptine, 1 μg/ml aprotonine) for 30 min on ice and the soluble fraction was recovered by centrifugation at 20.000 g for 10 min. The enzymes were purified on NiNTA column (Qiagen), stored at 4° C. and used within a week. To carry out the enzyme inhibition assays under linear conditions, the final point test system for kinase activity measurement was used. Kinase was added to reaction mixture in such a way as to obtain linear activity with respect to the concentration of enzyme and with respect to time. For determination of kinase inhibition the reaction mixture contained 1 mg/ml histone H1 (type III-S, Sigma) in the presence of 15 μM ATP, 0.05 μCi [γ-^33P]ATP and the tested compound in a final volume of 10 μl; all in reaction buffer (50 mM HEPES, 10 mM MgCl2, 5 mM EGTA, 10 mM 2-glycerolphosphate, 1 mM NaF, 1 mM DTT, pH 7.4). After 20 min incubation, the reactions were stopped by the addition of 5 μl of a 3% H3PO4, aliquots were spotted on P-81 phosphocellulose (Whatman, USA) that was subsequently washed 3× with 5% H3PO4 and finally air dried. The measurements of kinase inhibition employed digital image analyzer BAS-1800 (Fujifilm, Japan). Kinase activity was usually expressed as a percentage of maximum activity. […] For the purpose of kinetic analysis, the activity was expressed as arbitrary units (AU) of digital image analyzer signal.

The target of another series is T2, CDK2/cyclin E (Homo sapiens, UniProt P24941).
T2 construct: made in house; host or cells: Sf9 insect cells (baculovirus co-infection)
The series can be described thus: CDK2/cyclin E kinase inhibition assay (histone H1, [γ-33P]ATP). Format: biochemical. As to conditions: for IC50: averaged from triplicates, 15 μM ATP. The protocol: as §1

The subject of series [1] is G 361 (human malignant melanoma). The series can be described thus: In vitro cytotoxicity, Calcein AM, 72 h. As to conditions: 72 h; for IC50: Calcein AM, triplicates, read-out: IC50 (μM) G361; for % of viable cells G361: at 100 μM. Format: cell-based. The protocol:
(§2) Tested drugs were added to the cell cultures in six different concentration and kept at 37° C. and 5% CO2 for three days.
(§3) The cells, cultured in DMEM (supplemented with 10% fetal calf serum, 4 mM glutamine, 100 IU/ml penicillin, 100 μg/ml streptomycin) in a humidified CO2 incubator at 37° C., were redistributed into 96-well microtitre plates (10.000 cells per well). After 12 h preincubation, tested compounds in six-fold dilutions were added. Treatment of cells with the tested compounds (in the 1-100 μM range) lasted for 72 h.

In series [2] the test system is HOS (human osteogenic sarcoma). As to the kind of experiment: In vitro cytotoxicity, Calcein AM, 72 h. Format: cell-based. As to conditions: for IC50: Calcein AM, triplicates, read-out: IC50 (μM) HOS; for % of viable cells HOS: at 100 μM. The protocol: as §2, §3
In series [3] the test system is K562 (human chronic myeloblastic leukemia). As to the kind of experiment: In vitro cytotoxicity, Calcein AM, 72 h. It counts as cell-based. The note with it: 72 h; for IC50: Calcein AM, triplicates, read-out: IC50 (μM) K562; for % of viable cells K562: at 100 μM. The protocol: as §2, §3
Series [4] deals with MCF7 (human breast adenocarcinoma). As to the kind of experiment: In vitro cytotoxicity, Calcein AM, 72 h. As to conditions: 72 h; for IC50: Calcein AM, triplicates, read-out: IC50 (μM) MCF7; for % of viable cells MCF7: at 100 μM. Format: cell-based. As for the experimental part: as §2, §3
Series [5] is described as follows: In vitro cytotoxicity, Calcein AM, 72 h. It counts as cell-based, human. As to conditions: human, at 100 μM. The protocol: as §2, §3
The mark [6] stands for this setting: G 361 cells (human malignant melanoma), 72 h, read-out: % of viable cells G361.
Setting [7] is: HOS cells (human osteogenic sarcoma), read-out: % of viable cells HOS.
Where [8] appears, read: K562 cells (human chronic myeloblastic leukemia), 72 h, read-out: % of viable cells K562.
Setting [9] is: MCF7 cells (human breast adenocarcinoma), 72 h, read-out: % of viable cells MCF7.

T1 sequence (P06493 whole entry): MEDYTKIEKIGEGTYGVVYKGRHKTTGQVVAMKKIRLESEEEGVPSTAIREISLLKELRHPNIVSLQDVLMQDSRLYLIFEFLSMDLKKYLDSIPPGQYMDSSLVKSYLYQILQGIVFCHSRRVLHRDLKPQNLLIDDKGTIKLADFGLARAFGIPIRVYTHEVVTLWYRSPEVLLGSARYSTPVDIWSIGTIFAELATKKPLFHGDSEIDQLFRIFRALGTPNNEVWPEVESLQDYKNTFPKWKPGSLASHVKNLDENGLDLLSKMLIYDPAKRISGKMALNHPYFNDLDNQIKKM
T1 sequence (P14635 whole entry partner): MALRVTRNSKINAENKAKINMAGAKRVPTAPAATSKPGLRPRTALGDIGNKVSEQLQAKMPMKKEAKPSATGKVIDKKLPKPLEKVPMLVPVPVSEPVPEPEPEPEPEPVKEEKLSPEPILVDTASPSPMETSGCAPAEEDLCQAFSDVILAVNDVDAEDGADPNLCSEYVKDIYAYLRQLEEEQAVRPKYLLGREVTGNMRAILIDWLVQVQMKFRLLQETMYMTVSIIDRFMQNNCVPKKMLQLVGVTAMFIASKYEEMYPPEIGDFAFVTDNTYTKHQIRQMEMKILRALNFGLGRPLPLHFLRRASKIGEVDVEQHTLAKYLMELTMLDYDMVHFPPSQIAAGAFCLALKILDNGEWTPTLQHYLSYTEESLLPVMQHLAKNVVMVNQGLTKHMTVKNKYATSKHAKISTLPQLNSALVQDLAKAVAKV

For the molecule `Nc1n[nH]c(N)c1/N=N/c1ccc(I)cc1` [Compound 6b, 3,5-diamino-4-(4-iodo)phenylazo-pyrazole], the IC50 (in general, the concentration that gives 50% inhibition) at CDK1/cyclin B is over 100 µM.

For `Cc1cc2nc(Cc3ccccc3N=Nc3c(N)n[nH]c3N)c(=O)[nH]c2cc1C` [Compound 27b], the IC50 at CDK1/cyclin B and against CDK2/cyclin E was over 100 µM in each case.

`Nc1n[nH]c(N)c1N=Nc1ccccc1` [Compound 1b, 3,5-diamino-4-(phenyl)azo-pyrazole]: the IC50 was 25 µM on CDK1/cyclin B; 22 µM against CDK2/cyclin E; over 100 µM in series [1]; over 100 µM in series [2]; over 100 µM in series [3]; over 100 µM in series [4]. In addition, the “% of viable cells G361” value in series [1] was “(75 ± 2%)”. In addition, in series [2], the “% of viable cells HOS” value is “(83 ± 8%)”. Moreover, the “% of viable cells K562” value in series [3] is “(90 ± 14%)”. Also, in series [4], the “% of viable cells MCF7” value is listed as “(74 ± 5%)”.

Take `Nc1n[nH]c(N)c1/N=N/c1ccccc1O` [Compound 10b, 3,5-diamino-4-(2-hydroxy)phenylazo-pyrazole]: the IC50 at CDK1/cyclin B was 3.6 µM; in series [1] (Homo sapiens, G-361), over 100 µM; in series [2] (Homo sapiens) it was over 100 µM; in series [3] (Homo sapiens, K562) it was over 100 µM; in series [4] (Homo sapiens, MCF7) it was over 100 µM. Besides, the viability at 72 h, 100 µM in series [5] (setting [6]) is 74%; in series [5] (setting [7]), 84%; in series [5] (setting [8]) it was 72%; in series [5] (setting [9]), 72%.

As for `COc1ccc(NS(=O)(=O)c2ccc(N=Nc3c(N)n[nH]c3N)cc2)nn1` [Compound 23b, 4-[(3,5-diamino-pyrazol-4-yl)-azo]-N-(6-methoxypyridazin-3-yl)-benzensulfonamide], the IC50 on CDK1/cyclin B and on CDK2/cyclin E was over 100 µM throughout.

Regarding `Nc1n[nH]c(N)c1N=Nc1cccc2ccccc12` [Compound 28b, 3,5-diamino-4-(naphth-1-yl)azo-pyrazole], the IC50 at CDK1/cyclin B was 5.5 µM; against CDK2/cyclin E it was 10 µM; in series [1], over 100 µM; in series [2], over 100 µM; in series [3], 50 ± 3 µM; in series [4], over 100 µM. In addition, the “% of viable cells G361” value in series [1] is on record as “(55 ± 14%)”. In addition, the “% of viable cells HOS” value in series [2] is reported as “(79 ± 8%)”. For the same molecule, in series [3], the “% of viable cells K562” value is listed as “(7.7 ± 6%)”. For the same molecule, the “% of viable cells MCF7” value in series [4] is given as “(56 ± 1%)”.

As for `Cc1cc(C)nc(NS(=O)(=O)c2ccc(N=Nc3c(N)n[nH]c3N)cc2)n1` [Compound 21b, 4-[(3,5-diamino-pyrazol-4-yl)-azo]-N-(4,6-dimethylpyrimidin-2-yl)benzensulfonamide], the IC50 on CDK1/cyclin B was over 100 µM. For the same molecule, on CDK2/cyclin E, the “inhibition of the enzyme CDK2 (in words)” value is recorded as “failed to inhibit the enzyme” and the IC50 is over 100 µM.

`Cc1c(/N=N/c2c(N)n[nH]c2N)c(=O)n(-c2ccccc2)n1C` [Compound 31b]: the IC50 on CDK1/cyclin B and against CDK2/cyclin E was over 100 µM in each case.

Consider `Nc1n[nH]c(N)c1/N=N/c1cccc([N+](=O)[O-])c1` [Compound 8b, 3,5-diamino-4-(3-nitro)phenylazo-pyrazole], for which the IC50 is 4.8 µM on CDK1/cyclin B; over 100 µM in series [1] (Homo sapiens, G-361); over 100 µM in series [2] (Homo sapiens); 79 ± 6 µM in series [3] (Homo sapiens, K562); 65 ± 7 µM in series [4] (Homo sapiens, MCF7). In addition, the viability at 72 h, 100 µM in series [5] (setting [6]) was 69%; in series [5] (setting [7]), 95%; in series [5] (setting [8]), 28%; in series [5] (setting [9]), 44%.

As for `Nc1n[nH]c(N)c1/N=N/c1ccc(F)cc1` [Compound 3b, 3,5-diamino-4-(4-fluoro)phenylazo-pyrazole], the IC50 at CDK1/cyclin B worked out at 25 µM; against CDK2/cyclin E it was 24 µM.

For the molecule `Nc1n[nH]c(N)c1N=Nc1ccc(S(=O)(=O)Nc2nccs2)cc1` [Compound 20b, 4-[(3,5-diaminopyrazol-4-yl)azo]-N-(thiazol-2-yl)-benzensulfonamide], the IC50 against CDK1/cyclin B and against CDK2/cyclin E was over 100 µM in each case.

With `Nc1n[nH]c(N)c1N=Nc1ccccc1Cc1nc2ccccc2[nH]c1=O` [Compound 26b], on CDK2/cyclin E, the IC50 turned out to be 95 µM.

For the molecule `Nc1n[nH]c(N)c1/N=N/c1cccc(C(=O)c2cccc(/N=N/c3c(N)n[nH]c3N)c2)c1` [Compound 33d], the IC50 at CDK1/cyclin B and on CDK2/cyclin E was over 100 µM each time.

With `Nc1n[nH]c(N)c1/N=N/c1ccc(S(=O)(=O)c2ccc(/N=N/c3c(N)n[nH]c3N)cc2)cc1` [Compound 34d], the IC50 on CDK1/cyclin B and against CDK2/cyclin E was over 100 µM in each case.

In turn, `N=C(N)NS(=O)(=O)c1ccc(N=Nc2c(N)n[nH]c2N)cc1` [Compound 19b, N-[amino(imino)methyl]-4-[(3,5-diamino-pyrazol-4-yl)azo]-benzansulfonamide] came in with an IC50 on CDK1/cyclin B of over 100 µM.

Take `Nc1n[nH]c(N)c1N=Nc1cccc(C(=O)O)c1` [Compound 14b, 3,5-diamino-4-(3-carboxy)phenylazo-pyrazole]: the IC50 is 34 µM against CDK1/cyclin B and 27 µM at CDK2/cyclin E.

As for `Nc1n[nH]c(N)c1/N=N/c1ccc(C(=O)c2ccc(/N=N/c3c(N)n[nH]c3N)cc2)cc1` [Compound 32d], the IC50 against CDK1/cyclin B and on CDK2/cyclin E was over 100 µM in each case.

Consider `Nc1n[nH]c(N)c1/N=N/c1ccc(-c2nc3ccccc3[nH]c2=O)cc1` [Compound 24b], for which the IC50 against CDK1/cyclin B and at CDK2/cyclin E was over 100 µM each time.

As for `Nc1n[nH]c(N)c1/N=N/c1cccc(S(=O)(=O)c2cccc(/N=N/c3c(N)n[nH]c3N)c2)c1` [Compound 35d], the IC50 against CDK1/cyclin B and against CDK2/cyclin E was over 100 µM throughout.

With `Nc1n[nH]c(N)c1/N=N/c1ccccc1-c1nc2ccccc2[nH]c1=O` [Compound 25b], the IC50 on CDK1/cyclin B and at CDK2/cyclin E was over 100 µM in each case.

Consider `Nc1n[nH]c(N)c1N=Nc1ccc2ccccc2c1` [Compound 29b, 3,5-diamino-4-(naphth-2-yl)azo-pyrazole], for which the IC50 was found to be 16 µM against CDK1/cyclin B and 15 µM at CDK2/cyclin E.

Regarding `CC(=O)NS(=O)(=O)c1ccc(N=Nc2c(N)n[nH]c2N)cc1` [Compound 18b, N-({4-[(3,5-diamino-pyrazol-4-yl)azo]phenyl}sulfonyl)-acetamide], the IC50 against CDK1/cyclin B is over 100 µM. Also, at CDK2/cyclin E, the “inhibition of the enzyme CDK2 (in words)” value was “failed to inhibit the enzyme” and the IC50 was over 100 µM.

For the molecule `Nc1n[nH]c(N)c1/N=N/c1ccc(Br)cc1` [Compound 5b, 3,5-diamino-4-(4-bromo)phenylazo-pyrazole], the IC50 at CDK1/cyclin B is over 100 µM.

In the case of `Nc1n[nH]c(N)c1/N=N/c1ccc(Cl)cc1` [Compound 4b, 3,5-diamino-4-(4-chloro)phenylazo-pyrazole], the IC50 against CDK1/cyclin B worked out at 60 µM; against CDK2/cyclin E it was 45 µM.

Consider `Nc1n[nH]c(N)c1N=Nc1ccccc1C(=O)O` [Compound 13b, 3,5-diamino-4-(2-carboxy)phenylazo-pyrazole], for which the results for the IC50 at CDK1/cyclin B and against CDK2/cyclin E were 70 µM and 88 µM, respectively.

`COc1cnc(NS(=O)(=O)c2ccc(N=Nc3c(N)n[nH]c3N)cc2)nc1` [Compound 22b, 4-[(3,5-diamino-pyrazol-4-yl)-azo]-N-(5-methoxypyrimidin-2-yl)-benzensulfonamide]: the IC50 against CDK1/cyclin B and on CDK2/cyclin E was over 100 µM in each case.
